The results in this text go back to PubChem BioAssay (NCI).

SMILES strings stand for the structures. Several values for one entry are separate records, joined by “and”; a condition that tells them apart may be missing. Equal entries are not always repeated.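 1) Cells in 96-well plates. 2) Compound, 48 h, 5 concentrations. 3) Linear interpolation between surrounding doses. 4) Unreached endpoint = highest concentration. Here, GI50 denotes the concentration required for 50% inhibition of growth. Definition used: TGI = concentration required for complete inhibition of growth.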

Common to all, as to test: inhibition of tumour cell growth, NCI panel, 48 h
In experiment [1] the test system is SR leukemia.
The test system of experiment [2] is HCT-116 colon.
Experiment [3] deals with IGROV1 ovarian.
Experiment [4] deals with COLO 205 colon.
In experiment [5] the test system is SNB-75 CNS.
Experiment [6] concerns 786-0 renal.
The subject of experiment [7] is HL-60(TB) leukemia.
Experiment [8] concerns OVCAR-5 ovarian.
The test system of experiment [9] is HOP-62 NSCLC.
Experiment [10] concerns M14 melanoma.

For the compound `CCCCCCCCCCCCCCCC[N+](C)(C)C`, the GI50 in experiment [1] is 0.166 µM; in [2] it was 0.258 µM and 1.01 µM; in experiment [3] it was 0.154 µM; in experiment [4], 0.16 µM and 1.19 µM; in [5], 0.142 µM and 1.36 µM; in experiment [6], 0.966 µM. Further, the GI50 in experiment [7] is 0.148 µM and 0.371 µM; in [8] it was 0.196 µM and 1.23 µM; in experiment [9] it was 0.198 µM and 1.33 µM; in experiment [10], 1.17 µM. The TGI in experiment [1] was 0.551 µM; in experiment [2], 1.04 µM and 2.57 µM; in experiment [3] it was 0.359 µM; in experiment [4] it was 0.295 µM and 2.75 µM; in experiment [5], 0.396 µM and 3.72 µM; in [6], 2.43 µM. Also, the TGI in [7] is 0.336 µM and 1.81 µM; in [8], 0.61 µM and 4.06 µM; in [9], 0.54 µM and 3.07 µM; in experiment [10] it was 2.86 µM.

On to `COc1cc([N+](=O)[O-])c(S(=O)(=O)O)cc1-n1nc(-c2ccccc2)n[n+]1-c1cc(S(=O)(=O)[O-])c([N+](=O)[O-])cc1OC`, for which the TGI in [1], in [2], in experiment [3], in experiment [4], in experiment [5] and in [6] was more than 100 µM in each case. Also, the TGI in experiment [7], in experiment [8], in experiment [9] and in experiment [10] was more than 100 µM each time.

Turning to `CCOc1ccccc1N=C(NC(=O)CC)SC`, the GI50 is more than 100 µM in experiment [1]; more than 10 µM in [2]; more than 100 µM in experiment [3]; more than 10 µM in experiment [5]; more than 100 µM in experiment [6]; more than 100 µM in experiment [7]. For the same compound, the GI50 in experiment [9] and in experiment [10] was more than 100 µM throughout. The TGI in experiment [1] was more than 100 µM; in experiment [2], more than 100 µM; in [3], more than 100 µM; in [4] it was more than 10 µM; in [5] it was more than 100 µM; in [6] it was more than 100 µM. The TGI in [7] is more than 100 µM; in experiment [8], more than 10 µM; in experiment [9] it was more than 100 µM; in experiment [10], more than 100 µM.

Take `C/C(=C\c1ccccc1)C(O)S(=O)(=O)O` (configuration not stated): the TGI in experiment [1], in [2], in [3], in experiment [4], in experiment [5] and in experiment [6] was more than 100 µM throughout. For the same compound, the TGI in [7], in experiment [8], in experiment [9] and in experiment [10] was more than 100 µM throughout.

Regarding `CCCCC/C=C1\CCC(CN2CCOCC2)C1=O` (configuration not stated), the TGI stood at 12.1 µM in [1]; 54.9 µM in experiment [2]; 33 µM in [3]; 13.7 µM in experiment [4]; 33.5 µM in experiment [5]; 7.17 µM in [6]. In addition, the TGI came out at 24.2 µM in experiment [7], 35.9 µM in experiment [8], 54.5 µM in experiment [9] and 16.9 µM in [10].

On to `COc1cc(C(C)c2cc3c(cc2OCCOCCOc2cc4c(cc2C(C)c2cc(OC)c(OC)c(OC)c2)OCO4)OCO3)cc(OC)c1OC` (configuration not stated), for which the TGI is more than 10 µM in experiment [1]; more than 100 µM in experiment [2]; more than 100 µM in [3]; more than 100 µM in experiment [4]; > 10 µM and 74.8 µM in experiment [5]; more than 100 µM in [6]. Further, the TGI in [7], in experiment [8], in experiment [9] and in experiment [10] was more than 100 µM throughout. Moreover, the GI50 in experiment [2] was more than 100 µM; in experiment [3] it was more than 100 µM; in [4], more than 100 µM; in experiment [5] it was more than 10 µM; in experiment [6], more than 100 µM; in experiment [7] it was more than 100 µM. Moreover, the GI50 in [8], in experiment [9] and in experiment [10] was more than 100 µM each time.

As for `CO/N=C(\COc1ccc2c(=O)cc(-c3ccccc3)oc2c1)c1ccc(OC)cc1`, the GI50 is more than 100 µM in [1]; more than 100 µM in experiment [2]; more than 100 µM in experiment [3]; more than 100 µM in [4]; 38.2 µM in experiment [5]; more than 100 µM in [6]. The GI50 in [7], in experiment [8], in experiment [9] and in experiment [10] was more than 100 µM each time. The TGI in [1], in [2], in experiment [3], in experiment [4], in experiment [5] and in [6] was more than 100 µM each time. Besides, the TGI in [7], in experiment [8], in experiment [9] and in [10] was more than 100 µM each time.

For the compound `O=C1c2ccccc2C(=O)N1C/C=N/NS(=O)(=O)c1ccc(Cl)cc1`, the TGI in [1], in experiment [2], in experiment [3], in experiment [4], in [5] and in experiment [6] was more than 100 µM each time. The TGI in experiment [7], in [9] and in [10] was more than 100 µM each time.

With `COc1ccc(CNCCCN2C(=O)c3ccc4c5c(ccc(c35)C2=O)C(=O)N(CCCNCCCCNCCCN)C4=O)c(OC)c1OC`, the GI50 is 1.31 µM in experiment [1]; 0.534 µM in [2]; 1.54 µM in [3]; 0.194 µM in experiment [4]; 1.27 µM in experiment [5]; 3.53 µM in experiment [6]. The results for the GI50 in experiment [7], in experiment [9] and in [10] were 2.73 µM, 1.4 µM and 1.66 µM, respectively. Besides, the TGI in [1] amounted to 17.4 µM; in [2] it was 3.77 µM; in [3] it was 12.5 µM; in [4], 0.391 µM; in experiment [5], 3.63 µM; in experiment [6], 22.5 µM. Further, the TGI in experiment [7] was 13.1 µM; in [9], 8.97 µM; in experiment [10], 3.57 µM.

Take `CC(=O)N1C(=O)C(=O)c2cc(Cl)ccc21`: the TGI in experiment [1], in [3], in experiment [4], in [5], in experiment [6] and in [7] was more than 100 µM each time. Also, the TGI in experiment [8] and in [10] was more than 100 µM in each case.
